US9340544B2, “Purinyl derivatives and their use as potassium channel modulators” (NeuroSearch A/S, priority 2007, dated 2016)

These molecules were tested against T1, hSK3 channels (Homo sapiens, UniProt Q9UGI6) (assay: Whole-cell patch-clamp recording of ionic current through SK channels (subtype 3) in HEK293 cells expressing hSK3). Conditions: SK3 activation.
T1 construct: expressed in transfected cells; host or cells: HEK293
Assay type: cell-based
Method: The ionic current through small-conductance Ca^2+-activated K^+ channels (SK channels, subtype 3) is recorded using the whole-cell configuration of the patch-clamp technique in a classic patch-clamp set-up using HEK293 tissue culture cells expressing hSK3 channels as described in e.g. WO 2006/100212.
The SC100 value determined is defined as the Stimulating Concentration required for increasing the baseline current by 100%.

Point of comparison: `Cc1cc(-c2ccco2)nn1-c1nc(Nc2ccc(Cl)cc2)c2ncn(C)c2n1` [Compound 9.18, (4-Chloro-phenyl)-[2-(3-furan-2-yl-5-methyl-pyrazol-1-yl)-9-methyl-9H-purin-6-yl]-amine], “The SC100 (Stimulating Concentration required for increasing the baseline current by 100%)” value 1.0 µM. Against it:
- CCn1cnc2c(Nc3ccc(Cl)cc3)nc(-n3nc(C)cc3C)nc21 [Compound 6.4, (4-Chloro-phenyl)-[2-(3,5-dimethyl-pyrazol-1-yl)-9-ethyl-9H-purin-6-yl]-amine] — 100-fold lower, 0.01 µM
- Cc1cc(C)n(-c2nc(Nc3ccc(F)cc3)c3ncn(C)c3n2)n1 [Compound 9.1, [2-(3,5-Dimethyl-pyrazol-1-yl)-9-methyl-9H-purin-6-yl]-(4-fluoro-phenyl)-amine] — 20-fold lower, 0.05 µM
- Cc1cc(C)n(-c2nc(Nc3ccc(Cl)nc3)c3ncn(C)c3n2)n1 [Compound 9.7, (6-Chloro-pyridin-3-yl)-[2-(3,5-dimethyl-pyrazol-1-yl)-9-methyl-9H-purin-6-yl]-amine] — 2.5-fold lower, 0.4 µM
- Cc1cc(C)n(-c2nc(Nc3ccc([N+](=O)[O-])cc3)c3ncn(C)c3n2)n1 [Compound 9.8, [2-(3,5-Dimethyl-pyrazol-1-yl)-9-methyl-9H-purin-6-yl]-(4-nitro-phenyl)-amine] — 5-fold lower, 0.2 µM
- Cc1cc(C)n(-c2nc(NCCc3ccccc3)c3ncn(C)c3n2)n1 [Compound 9.11, [2-(3,5-Dimethyl-pyrazol-1-yl)-9-methyl-9H-purin-6-yl]-phenethyl-amine] — 5-fold lower, 0.2 µM
- CCc1cc(CC)n(-c2nc(Nc3ccc(Cl)cc3)c3ncn(C)c3n2)n1 [Compound 9.14, (4-Chloro-phenyl)-[2-(3,5-diethyl-pyrazol-1-yl)-9-methyl-9H-purin-6-yl]-amine] — 1.7-fold lower, 0.6 µM
- Cc1nn(-c2nc(Nc3ccc(Cl)cc3)c3ncn(C)c3n2)c(C)c1Cl [Compound 9.16, [2-(4-Chloro-3,5-dimethyl-pyrazol-1-yl)-9-methyl-9H-purin-6-yl]-(4-chloro-phenyl)-amine] — 50-fold lower, 0.02 µM
- Cc1cc(CO)n(-c2nc(Nc3ccc(Cl)cc3)c3ncn(C)c3n2)n1 [Compound 13.1, {2-[6-(4-Chloro-phenylamino)-9-methyl-9H-purin-2-yl]-5-methyl-2H-pyrazol-3-yl}-methanol] — 5-fold lower, 0.2 µM
- Cc1cc(C)n(-c2nc(Nc3ccccc3)c3nc[nH]c3n2)n1 [Compound 14.1, [2-(3,5-Dimethyl-pyrazol-1-yl)-9H-purin-6-yl]-phenyl-amine] — 5-fold lower, 0.2 µM
- COCCn1cnc2c(Nc3ccccc3)nc(-n3nc(C)cc3C)nc21 [Compound 15.1, [2-(3,5-Dimethyl-pyrazol-1-yl)-9-(2-methoxy-ethyl)-9H-purin-6-yl-]phenyl-amine] — 2.5-fold lower, 0.4 µM
